The record followed here is patent US20170081357A1, “[…] ACTIVE 17-NITROGEN SUBSTITUTED ESTRATREINTHIAZOLE DERIVATIVES AS INHIBITORS OF 17.BETA-HYDROXYSTEROID DEHYDROGENASE” (FORENDO PHARMA LTD, priority 2013, published 2017).

The nature of data set [1]: Metabolic stability assay, human liver microsome and homogenate incubations. Format: in vitro ADME. The conditions noted are these: human liver homogenate or microsomes, LC/PDA/TOF-MS. How it is done: The in vitro metabolic stability of the compounds of the invention was determined for exemplified compounds using human liver microsome and homogenate incubations. The incubation time points used with or without appropriate cofactors were 0 min and 60 min. Samples were collected at both time points and substrates were detected using LC/PDA/TOF-MS. In vitro metabolic stability (% remaining after 60 min in human liver homogenate or microsomes) of the compounds were calculated and the results are summarized in Table 3.

Data set [2] concerns the target T1, recombinant human 17β-HSD1 (Homo sapiens, UniProt P14061).
T1 construct: made in house; host or cells: Sd9 (Sf9) insect cells, baculovirus (Bac to Bac Expression System); microsomal fraction
T1 sequence (P14061 1-328): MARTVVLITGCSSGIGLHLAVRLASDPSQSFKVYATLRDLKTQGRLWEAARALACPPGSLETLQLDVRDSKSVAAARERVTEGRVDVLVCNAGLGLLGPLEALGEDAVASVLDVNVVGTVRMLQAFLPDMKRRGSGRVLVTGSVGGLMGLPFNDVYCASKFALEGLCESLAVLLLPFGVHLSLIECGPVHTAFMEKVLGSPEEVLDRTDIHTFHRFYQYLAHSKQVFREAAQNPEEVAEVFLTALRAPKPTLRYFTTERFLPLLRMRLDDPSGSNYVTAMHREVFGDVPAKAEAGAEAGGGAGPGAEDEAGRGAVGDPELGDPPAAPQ
Put plainly: Inhibition of recombinant human 17β-HSD1 (conversion of 3H-estrone to estradiol, HPLC). The format is biochemical. The note with it: inhibitor 1 μM; 30 nM estrone, 1 mM NADPH, 30 min at RT; read-out: 17β-HDS1 Inhibition % at 1 μM. How it is done:
17β-HSD1 production and isolation: Recombinant baculovirus was generated by the “Bac to Bac Expression System” (Invitrogen). Recombinant bacmid was transfected to Sd9 insect cells using “Cellfectin Reagent” (Invitrogen). 60 h later cells were harvested; the microsomal fraction was isolated as described by Puranen, T. J., Poutanen, M. H., Peltoketo, H. E., Vihko, P. T. and Vihko, R. K. (1994) Site-directed mutagenesis of the putative active site of human 17 β-hydroxysteroid dehydrogenase type 1. Biochem. J. 304: 289-293. Aliquots were stored frozen until determination of enzymatic activity.
Assay—Inhibition of recombinant human 17β-HSD1: Recombinant protein (1 μg/ml) was incubated in 20 mM KH2PO4 pH 7.4 with 30 nM estrone (including 800 000 cpm/ml of ^3H-estrone) and 1 mM NADPH for 30 min at RT, in the presence of the potential inhibitor at concentrations 1 μM or 0.1 μM. Inhibitor stock solutions were prepared in DMSO. Final concentration of DMSO was adjusted to 1% in all samples. The enzyme reaction was stopped by addition of 10% trichloroacetic acid (final concentration). Samples were centrifuged in a microtiter plate at 4000 rpm for 10 min. Supernatants were applied to reverse phase HPLC on a Waters Symmetry C18 column, equipped with a Waters Sentry Guard column. Isocratic HPLC runs were performed at RT at a flow rate of 1 ml/min in acetonitrile:water 48:52 as running solvent. Radioactivity was monitored in the eluate by a Packard Flow Scintillation Analyzer. Total radioactivity for estrone and estradiol were determined in each sample and percent conversion of estrone to estradiol was calculated according to the following formula:
(§1) Percent inhibition was calculated flowingly: % inhibition=100−% conversion

In data set [3] the target is T2, recombinant human 17β-HSD2 (Homo sapiens, UniProt P37059).
T2 construct: made in house; host or cells: Sd9 (Sf9) insect cells, baculovirus (Bac to Bac Expression System); fractionated cell extract
T2 sequence (P37059 1-387): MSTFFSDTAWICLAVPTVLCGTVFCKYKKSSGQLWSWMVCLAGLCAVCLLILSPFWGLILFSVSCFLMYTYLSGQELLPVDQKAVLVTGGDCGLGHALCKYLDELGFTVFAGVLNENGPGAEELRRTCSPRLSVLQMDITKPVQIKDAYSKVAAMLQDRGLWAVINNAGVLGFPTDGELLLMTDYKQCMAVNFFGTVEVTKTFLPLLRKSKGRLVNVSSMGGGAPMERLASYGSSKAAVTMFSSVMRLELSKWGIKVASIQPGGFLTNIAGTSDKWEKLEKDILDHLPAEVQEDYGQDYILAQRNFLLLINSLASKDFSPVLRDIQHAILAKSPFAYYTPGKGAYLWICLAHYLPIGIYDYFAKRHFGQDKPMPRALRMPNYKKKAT
Put plainly: Inhibition of recombinant human 17β-HSD2 (conversion of 3H-estradiol to estrone, HPLC). The format is biochemical. The conditions noted are these: inhibitor 1 μM; 50 nM estradiol, 1 mM NADH, 30 min at RT. How it is done:
17β-HSD2 production and isolation: Similarly to 17β-HSD1 the Recombinant baculovirus was generated by the “Bac to Bac Expression System” (Invitrogen). Recombinant bacmid was transfected to Sd9 insect cells using “Cellfectin Reagent” (Invitrogen). 60 h later cells were harvested and supernatant were fractionated by the following protocol: • cells were dissolved into 40 ml of A-buffer (40 mM TRIS, pH8.0, 20% glycerol, 20 μM NAD, 0.4 mM PMSF, 150 mM NaCl, 0.5% dodecyl-β-maltoside+protease inhibitor cocktail) • cells were sonicated • lysate was incubated on ice for 15 min • lysate was centrifuged 5000 rpm 15 min, +4° C. • centrifugation of the supernatant 180 000 g 30 min, +4° C. • pellet was dissolved into 8 ml of A-buffer • not resuspended material was removed by centrifugation 5000 rpm 15 min, +4° C. • the clear supernatant was divided into 100 μl aliquots and were stored frozen until determination of enzymatic activity.
The amount of 17β-HSD2 was analysed by immunoblotting and total protein concentration of each extract batch was determined.
Assay—Inhibition of recombinant human 17β-HSD2: Recombinant protein (4 μg/ml) was incubated in 20 mM KH2PO4 pH 8.5 with 50 nM estradiol (including 800 000 cpm/ml of ^3H-estradiol) and 1 mM NADH for 30 min at RT, in the presence of the potential inhibitor at concentrations 1 μM or 0.1 μM. Inhibitor stock solutions were prepared in DMSO. Final concentration of DMSO was adjusted to 1% in all samples. The enzyme reaction was stopped by addition of 10% trichloroacetic acid (final concentration). Samples were centrifuged in a microtiter plate at 4000 rpm for 10 min. Supernatants were applied to reverse phase HPLC on a Waters Symmetry C18 column, equipped with a Waters Sentry Guard column. Isocratic HPLC runs were performed at RT at a flow rate of 1 ml/min in acetonitrile:water 48:52 as running solvent. Radioactivity was monitored in the eluate by a Packard Flow Scintillation Analyzer. Total radioactivity for estrone and estradiol were determined in each sample and percent conversion of estradiol to estrone was calculated according to the following formula:
as §1

Each structure is given as a SMILES string.

In general, inhibition refers to the percentage by which the read-out fell short of the control.

`Cc1cnc(NC(=O)CC[C@@H]2C/C(=N\O)[C@@]3(C)CCC4c5cc(C(C)(C)C)c(O)cc5CCC4C23)s1` (stereo partly drawn) [Compound 58, 3-{(13S,15R)-2-tert-Butyl-3-hydroxy-17-[(E)-hydroxyimino]-13-methyl-7,8,9,11,12,13,14,15,16,17-decahydro-6H-cyclopenta[a]phenanthren-15-yl}-N-(5-methylthiazol-2-yl)propanamide]: the “In vitro metabolic stability, % remaining after 60 min” value in data set [1] is 100%.

For `C=CCO/N=C1\C[C@@H](CCC(=O)Nc2ncc(C)s2)C2C3CCc4cc(O)c([N+](=O)[O-])cc4C3CC[C@]12C` (stereo partly drawn) [Compound 108, 3-{(13S,15R)-17-[(E)-Allyloxyimino]-3-hydroxyl-13-methyl-2-nitro-7,8,9,11,12,13,14,15,16,17-decahydro-6H-cyclopenta[a]phenanthren-15-yl}-N-(5-methylthiazol-2-yl)propanamide], the inhibition at 1 µM amounted to 80% in data set [2] and 1% in data set [3].

In the case of `Cc1cnc(NC(=O)CC[C@@H]2C/C(=N\OCC(=O)O)[C@@]3(C)CCC4c5ccc(O)cc5CCC4C23)s1` (stereo partly drawn) [Compound 109, [(13S,15R)-3-Hydroxy-13-methyl-15-[2-(5-methylthiazol-2-ylcarbamoyl)-ethyl]-6,7,8,9,11,12,13,14,15,16-decahydro-cyclopenta[a]phenanthren-(17E)-ylideneaminooxy]-acetic acid], the inhibition at 1 µM in data set [2] is 56%; in data set [3], 0%.

With `Cc1cnc(NC(=O)CC[C@@H]2C/C(=N\OCC(=O)O)[C@@]3(C)CCC4c5cc(C(C)(C)C)c(O)cc5CCC4C23)s1` (stereo partly drawn) [Compound 110, [(13S,15R)-2-tert-Butyl-3-hydroxy-13-methyl-15-[2-(5-methylthiazol-2-ylcarbamoyl)-ethyl]-6,7,8,9,11,12,13,14,15,16-decahydro-cyclopenta[a]phenanthren-(17E)-ylideneaminooxy]-acetic acid], the inhibition at 1 µM in data set [2] was determined as 70%; in data set [3], 7%.

`Cc1cnc(NC(=O)CC[C@@H]2C/C(=N\OCC(=O)O)[C@@]3(C)CCC4c5cc([N+](=O)[O-])c(O)cc5CCC4C23)s1` (stereo partly drawn) [Compound 111, [(13S,15R)-3-Hydroxy-13-methyl-2-nitro-15-[2-(5-methylthiazol-2-ylcarbamoyl)-ethyl]-6,7,8,9,11,12,13,14,15,16-decahydro-cyclopenta[a]phenanthren-(17E)-ylideneaminooxy]-acetic acid]: the results for the inhibition at 1 µM in data set [2] and in data set [3] were 55% and 0%, respectively.

Consider `Cc1cnc(NC(=O)CC[C@@H]2C/C(=N\NC(N)=O)[C@@]3(C)CCC4c5ccc(O)cc5CCC4C23)s1` (stereo partly drawn) [Compound 112, 3-{(13S,15R)-3-Hydroxy-17-[(E)-N-urea-imino]-13-methyl-7,8,9,11,12,13,14,15,16,17-decahydro-6H-cyclopenta[a]phenanthren-15-yl}-N-(5-methylthiazol-2-yl)propanamide], for which the results for the inhibition at 1 µM in data set [2] and in data set [3] were 83% and 5%, respectively.

As to `Cc1cnc(NC(=O)CC[C@@H]2C/C(=N\NC(N)=O)[C@@]3(C)CCC4c5cc(Br)c(O)c(Br)c5CCC4C23)s1` (stereo partly drawn) [Compound 113, 3-{(13S,15R)-2,4-Dibromo-3-hydroxy-17-[(E)-N-urea-imino]-13-methyl-7,8,9,11,12,13,14,15,16,17-decahydro-6H-cyclopenta[a]phenanthren-15-yl}-N-(5-methylthiazol-2-yl)propanamide], the inhibition at 1 µM in data set [2] is 58%; in data set [3], 1%.

Turning to `Cc1cnc(NC(=O)CC[C@@H]2C/C(=N\O)[C@@]3(C)CCC4c5ccc6ocnc6c5CCC4C23)s1` (stereo partly drawn) [Compound 114, 3-{(7aS,10R)-8-[(E)-Hydroxyimino]-7a-methyl-6,7,7a,8,9,10,10a,10b,11,12-decahydro-5bH-3-oxa-1-aza-dicyclopenta[a,i]phenathren-10-yl}-N-(5-methylthiazol-2-yl)propanamide], the inhibition at 1 µM was found to be 70% in data set [2] and 5% in data set [3].

For the molecule `Cc1cnc(NC(=O)CC[C@@H]2c3conc3[C@@]3(C)CCC4c5cc(Br)c(O)c(Br)c5CCC4C23)s1` (some centres unmarked) [Compound 119], the results for the inhibition at 1 µM in data set [2] and in data set [3] were 79% and 28%, respectively.

With `Cc1cnc(NC(=O)CC[C@@H]2C/C(=N\CC(C)C)[C@@]3(C)CCC4c5ccc(O)cc5CCC4C23)s1` (stereo partly drawn) [Compound 121, 3-{(13S,15R)-3-Hydroxy-17-[(E)-isobutylimino]-13-methyl-7,8,9,11,12,13,14,15,16,17-decahydro-6H-cyclopenta[a]phenanthren-15-yl}-N-(5-methylthiazol-2-yl)propionamide], the figures for the inhibition at 1 µM in data set [2] and in data set [3] were 94% and 7%, respectively.

On to `COCC/N=C1\C[C@@H](CCC(=O)Nc2ncc(C)s2)C2C3CCc4cc(O)ccc4C3CC[C@]12C` (stereo partly drawn) [Compound 122, 3-{(13S,15R)-3-Hydroxy-17-[(E)-2-methoxy-ethylimino]-13-methyl-7,8,9,11,12,13,14,15,16,17-decahydro-6H-cyclopenta[a]phenanthren-15-yl}-N-(5-methylthiazol-2-yl)propionamide], for which the inhibition at 1 µM in data set [2] was found to be 94%; in data set [3], 5%.

With `COCC/N=C1\C[C@@H](CCC(=O)Nc2ncc(C)s2)C2C3CCc4cc(O)c(C(C)(C)C)cc4C3CC[C@]12C` (stereo partly drawn) [Compound 123, 3-{(13S,15R)-2-tert-Butyl-3-hydroxy-17-[(E)-2-methoxy-ethylimino]-13-methyl-7,8,9,11,12,13,14,15,16,17-decahydro-6H-cyclopenta[a]phenanthren-15-yl}-N-(5-methylthiazol-2-yl)propionamide], the inhibition at 1 µM stood at 94% in data set [2] and 30% in data set [3].
